Laboratory results from patent US8058437B2, “(Pyrroloquinoxalinyl) pyrazinecarbohydrazide-oxalic acid co-crystal for treatment of cancer and other diseases” (Novelix Pharmaceuticals, Inc., priority 2008, dated 2011).
Values joined by “and” are separate entries in the source; they are usually repeats but may differ in a detail not shown here. Identical values can stand only once. “Also recorded” adds a separate entry of the source. Like-named read-outs stand apart in the source and are kept apart here.

Key:
[1] = Pharmacokinetic experiments in rats (IV, oral suspension, oral solution); assay type: in vivo; details: rat; for bioavailability: versus mean IV AUCINF, adjusted for dose
Description: The oral suspension formulation was prepared by suspending the test article in 5% PEG-200/95% of a 0.5% solution of methylcellulose. The concentration of the test article was such that a dosing volume of 10 mL/kg delivered the intended dose level. The oral solution formulations of NVX-144 and NVX-412 were prepared by dissolving the test article in 10% by volume dimethyl acetamide, followed by 60% by volume PEG-400, and then adding slowly a solution of 30% Captisol® in 50 mM lactic acid to provide the remaining 30% of volume. The concentration of the test article was such that a dosing volume of 10 mL/kg delivered the intended dose level. The IV formulation of NVX-412 was prepared by dissolving the test article in 10% by volume dimethyl acetamide, followed by 10% by volume PEG-400, and then adding slowly a solution of 10% Captisol® in 50 mM lactic acid to provide the remaining 80% of volume. The concentration of the test articles was such that a dosing volume of 2.5 mL/kg delivered the intended dose level. The doses administered were based on the body weight of each animal taken shortly before dosing. The formulations were used immediately after preparation.
A total of 15 rats were assigned to the study. Five groups of three male rats each comprised the study. Each group was treated once by oral gavage or intravenous injection via the tail vein as specified in Table 3 below.
The animals were fasted overnight prior to dosing and the feed returned approximately 2 hours post-dosing. The dose for each animal was based on the most recent body weight. Oral doses were administered by gavage. Animals received 10 mL/kg per single oral dose. Intravenous doses were administered by tail vein injection. The dose for each animal was based on the most recent body weight. Animals were dosed at 2.5 mL/kg per single intravenous dose.
Blood was collected from the animals in Groups 1 through 5 for pharmacokinetic analysis. Approximately 0.3 mL of blood was collected in potassium EDTA tubes via the orbital plexus at four time points (30 minutes, 1 hour, 4 hours, and 8 hours post-dose) from each rat treated by the oral route, and the blood samples were processed to prepare plasma. Blood was collected at four time points (5 minutes, 30 minutes, 1 hour, and 2 hours post-dose) from each rat treated by the intravenous route, and the blood samples were processed to prepare plasma. Animals were terminated (without necropsy) following their final sample collection.
The whole blood samples were centrifuged (˜1500×g) for a minimum of 10 minutes in a refrigerated centrifuge (set at ˜5° C.). Plasma was prepared and transferred within 30 minutes of blood collection/centrifugation to appropriately labeled tubes. The tubes were then frozen and stored in the dark at ≦−70° C. until analysis. The plasma samples were analyzed by LC-MS/MS to determine the plasma concentrations of NVX-144 and NVX-412. Pharmacokinetic analysis of the plasma concentration data was conducted using non-compartmental analysis with WinNonlin Version 4.1.

[2] = Salt formation experiments / physical characteristics of solid forms; assay type: physicochemical; details: suitable for pharmaceutical formulation
Description: Thus, a series of experiments was conducted to assess the preparation of NVX-144 salts of acids other than hydrochloric acid as possible novel compounds better suited to pharmaceutical preparations. […] As expected, NVX-144 base readily formed salts with strong organic acids.
Although oxalic acid co-crystals are rare, Trask et al. have reported a co-crystal of caffeine with oxalic acid (see Trask et al., “Pharmaceutical Cocrystallization: Engineering a Remedy for Caffeine Hydration,” Crystal Growth & Design, 5, 1013-21 (2005)).
Thus NVX-144 would not be expected to form a salt with oxalic acid, a relatively strong dicarboxylic acid.

[3] = male, plasma, po, 20 mg/kg, Group 5, PO-Solution 20 mg/kg, individual animals
[4] = Group 3, PO-Suspension 20 mg/kg, Mean N=2
[5] = Group 3, PO-Suspension 20 mg/kg, individual animals
[6] = Group 5, PO-Solution 20 mg/kg, Mean N=3
[7] = Group 5, PO-Solution 20 mg/kg, individual animals
[8] = IV 5 mg/kg, individual animals, 5 mg/kg

SMILES: O=C(NNc1nc2cc(F)ccc2n2cccc12)c1cnccn1.O=C(O)C(=O)O [NVX-412, N′-(7-fluoropyrrolo[1,2a]quinoxalin-4-yl)pyrazine-2-carbohydrazide oxalic acid co-crystal]
- AUC [1, 3]: 2390 ng·h/mL
- AUC(0-inf) [1, 3]: 2400 ng·h/mL
- Cmax ([1]; male, plasma, po, 20 mg/kg, Group 5, PO-Solution 20 mg/kg, individual animals, read-out: Cmax): 732 ng/mL
- half-life ([1]; male, plasma, po, 20 mg/kg, Group 5, PO-Solution 20 mg/kg, individual animals, read-out: T ½ (converted)): 1.18 h
- Tmax ([1]; male, plasma, po, 20 mg/kg, Group 5, PO-Solution 20 mg/kg, individual animals, read-out: Tmax): 0.5 to 1 h
- bioavailability ([1]; male, plasma, po, 20 mg/kg, Group 5, PO-Solution 20 mg/kg, individual animals, read-out: Bioavailability): 45.7%
- plasma concentration ([1]; Group 3, PO-Suspension 20 mg/kg, 0.5 hr, individual animals): 386.99 ng/mL and 573.34 ng/mL
- plasma concentration ([1]; Group 3, PO-Suspension 20 mg/kg, 1 hr, individual animals): 464.23 ng/mL and 584.12 ng/mL
- plasma concentration ([1]; Group 3, PO-Suspension 20 mg/kg, 4 hr, individual animals): 181.80 ng/mL and 249.34 ng/mL
- plasma concentration ([1]; Group 3, PO-Suspension 20 mg/kg, 8 hr, individual animals): 13.07 ng/mL and BLQ (BLQ = Below the Limit of Quantitation <5 ng/mL) and 5.48 ng/mL
- AUC % Extrap [1, 4]: 0.68%
- AUCINF [1, 4]: 2306.62 ng·h/mL
- T ½ [1, 4]: 1.15 h
- Cmax ([1]; Group 3, PO-Suspension 20 mg/kg, Mean N=3): 524.61 ng/mL
- AUC % Extrap [1, 5]: 1.00% and 0.36%
- AUCINF [1, 5]: 2200.54 ng·h/mL
- AUCall [1, 5]: 1642.21 ng·h/mL and 2192.52 ng·h/mL
- Cmax [1, 5]: 464.23 ng/mL and 584.12 ng/mL
- T ½ [1, 5]: 1.02 h
- bioavailability [1, 5]: 41.9%
- plasma concentration ([1]; Group 5, PO-Solution 20 mg/kg, 0.5 hr, individual animals): 635.82 ng/mL and 509.37 ng/mL
- plasma concentration ([1]; Group 5, PO-Solution 20 mg/kg, 1 hr, individual animals): 686.88 ng/mL and 489.07 ng/mL
- plasma concentration ([1]; Group 5, PO-Solution 20 mg/kg, 4 hr, individual animals): 171.97 ng/mL and 298.24 ng/mL
- plasma concentration ([1]; Group 5, PO-Solution 20 mg/kg, 8 hr, individual animals): 8.53 ng/mL and 5.14 ng/mL and 34.89 ng/mL
- AUC % Extrap [1, 6]: 1.73%
- Cmax [1, 6]: 642.71 ng/mL
- T ½ [1, 6]: 1.37 h
- AUC % Extrap [1, 7]: 0.61% and 0.34% and 4.24%
- AUCINF [1, 7]: 2139.39 ng·h/mL and 2322.68 ng·h/mL
- AUCall [1, 7]: 2132.13 ng·h/mL and 2224.16 ng·h/mL
- Cmax [1, 7]: 686.89 ng/mL and 509.37 ng/mL
- T ½ [1, 7]: 0.98 h and 1.96 h
- Tmax [1, 7]: 0.5 h
- bioavailability [1, 7]: 40.7% and 44.2%
- plasma concentration ([1]; IV 5 mg/kg, 0.083 h, individual animals, 5 mg/kg): 1716.72 ng/mL and 2001.77 ng/mL
- plasma concentration ([1]; IV 5 mg/kg, 0.5 h, individual animals, 5 mg/kg): 481.82 ng/mL and 461.19 ng/mL
- plasma concentration ([1]; IV 5 mg/kg, 1 h, individual animals, 5 mg/kg): 278.84 ng/mL and 253.02 ng/mL
- plasma concentration ([1]; IV 5 mg/kg, 2 h, individual animals, 5 mg/kg): 185.19 ng/mL and 143.93 ng/mL
- AUC % Extrap ([1]; IV 5 mg/kg, Mean of 3): 18.74%
- AUCINF ([1]; IV 5 mg/kg, Mean of 3, 5 mg/kg): 1314.5 ng·h/mL
- Cl ([1]; IV 5 mg/kg, Mean of 3, 5 mg/kg): 63.43 mL/min/kg and 63.4273 mL/min/kg
- Cmax ([1]; IV 5 mg/kg, Mean of 3, 5 mg/kg): 1842.5 ng/mL
- T ½ ([1]; IV 5 mg/kg, Mean of 3, 5 mg/kg): 1.03 h
- Vss ([1]; IV 5 mg/kg, Mean of 3, 5 mg/kg): 3.98512 L/kg
- AUC % Extrap [1, 8]: 18.44% and 22.68% and 15.1%
- AUCINF [1, 8]: 1349.72 ng·h/mL and 1277.84 ng·h/mL
- AUCall [1, 8]: 1043.56 ng·h/mL and 1084.89 ng·h/mL
- Cl [1, 8]: 61.7413 mL/min/kg and 65.2145 mL/min/kg
- Cmax [1, 8]: 1716.7 ng/mL and 2001.8 ng/mL
- T ½ [1, 8]: 1.15 h and 0.93 h
- Vss [1, 8]: 4.55297 L/kg and 3.44635 L/kg
- oral absorption ([1]; administered as a solution or suspension): moderate
- difference in oral absorption between NVX-412 and NVX-144 ([1]; dosed as a solution): no significant difference
- oral absorption / bioavailability of NVX-412 over NVX-144 free base ([1]; dosed as a suspension): more bioavailable; also recorded: slight improvement
- hydrate formation / stability [2]: forms stable mono- and di-hydrates
